Laboratory results published in patent US20250312360A1, “MITOCHONDRIAL ANTIOXIDANT TREATMENT FOR CASK-LINKED NEURODEVELOPMENTAL DISORDERS” (Virginia Tech Intellectual Properties, Inc., priority 2022, published 2025).
Entries after “also recorded” stand apart in the source; their conditions may differ.

How the values were obtained:
[1] = test system: CASK^floxed; Calb2-cre mice; assay: Cerebellar atrophy/degeneration after CASK deletion in cerebellum, images of cerebellum with SkQ1 treatment; assay type: in vivo
Description: (§1) FIG. 5A-5B.-Blocking mitochondrial ROS protects cerebellum from degenerating in absence of CASK. […] Cerebellum undergoes atrophy after P30. […] (FIG. 5B) Cerebellum undergoes atrophy in CASK^floxed; Calb2-cre mice leading to locomotor incoordination. The data represents latency time to fall in an accelerating rotarod experiment on P70. CASK^floxed. […] Data represents mean and SEM from n=3. * indicates p≤ 0.05.
With no evidence for a defect in neuronal development and biochemical evidence for mitochondrial ROS mediated neuronal death, Applicant next decided to determine if CASK loss results in the degeneration of formed neurons. In the human brain without CASK, Applicant observed astrogliosis as well as microgliosis, both hallmarks of neuronal damage and neuronal loss (Patel, Hegert et al., 2022). In the setting of a human brain without CASK, the presumptive neuronal loss occurs during the early development of the cerebellum, making it hard to further interpret the results. […]

[2] = test system: CASK^floxed; Calb2-cre mice; assay: Accelerating rotarod experiment (locomotor coordination/balance); assay type: in vivo; settings: P70, n=3, p≤0.05, untreated mice cannot balance on rotarod, FIG. 5B
Description: as §1

CC1=C(C)C(=O)C(CCCCCCCCCC[P+](c2ccccc2)(c2ccccc2)c2ccccc2)=CC1=O [SkQ1, 10-(6′-Plastoquinonyl)decyltriphenylphosphonium]
cerebellar atrophy (images of cerebellum) ([1]; CASK^floxed, untreated cerebellum atrophies after P30 (P30 vs P100 images), FIG. 5A right panel SkQ1-treated): rescue of cerebellar atrophy | cerebellar degeneration / neurodegeneration caused by CASK deletion ([1]; CASKfloxed, summary statement on FIG. 5A-5B): can halt CASK-linked cerebellar degeneration; also recorded: effectively inhibits neurodegeneration resulting from CASK-loss | latency time to fall in accelerating rotarod experiment (balance) [2]: balance is completely rescued
